Target: melatonin receptors
Experiment: Test of binding to melatonin receptors
Procedure: Binding of compounds of the invention to melatonin receptors was carried out according to conventional techniques.

## COc1ccc2[nH]cc(CCNC(C)=O)c2c1 [melatonin]
  Kd: 0.063 nM

— US5318994A, “N-[2-(7-lower-alkoxynaphth-1-yl)ethyl]benzamides” (Adir et Compagnie, priority 1990, dated 1994)
